Read-outs that look alike come from different tables or passages of the source.
Tests used:
Vcap cells = assay: CTG cell proliferation assay on Vcap cells (compounds alone or in combination, 5 days); format: cell-based
Description: In vitro test of the inhibition effect of the compound in combination with androgen receptor pathway modulators on the prostate cancer cell proliferation.
Inhibition effect of the compounds such as B101, B102, B103, B104, B105, B106, C111 and the like, androgen receptor pathway modulators, hormone compounds, alone or in combination with each other on the prostate cancer cell proliferation were tested on Vcap cells (androgen receptor (+) prostate cancer cells) (ATCC, catalogue number CRL-2876). The specific experimental operation was as follows: 5×10^3 Vcap cells per well were inoculated into 96-well plates with transparent bottom and white wall (Corning, catalogue number CLS3903) containing the specific medium, and were cultured in a 37° C., 5% CO2 incubator for 24 hours. The tested compounds and the androgen receptor pathway modulators were prepared to a 150 mM stocking solution with DMSO (Sigma, catalogue number 276855), diluted with culture medium to the desired concentrations (the final concentration of DMSO is 0.2%), and then added to each well, 2 wells/concentration, followed by being incubated in a 37° C., 5% CO2 incubator for 5 days. The tested compounds were used alone or in combination with other androgen receptor pathway modulators and/or hormone compounds respectively. […] After that, 100 μl of CellTiter-Glo® cell viability assay reagent (Promega, catalogue number G7570) was added to each well and mixed well on a vibrator for 10 minutes to induce cell lysis. The 96-well plate was placed at room temperature for 10 minutes, so as to stabilize its luminescence signal. A white bottom membrane was pasted on the bottom of the plate and the plate was tested using EnSpire.

LNCap cells = assay: CTG cell proliferation assay on LNCap cells (method of Effect embodiment 1); format: cell-based; conditions: tested compound alone
[1] = tested compound 0.1 μM in combination with 1 μM B101
[2] = tested compound 0.1 μM in combination with 1 μM B105
[3] = tested compound 1 μM in combination with 1 μM B101
[4] = tested compound 1 μM in combination with 1 μM B105
[5] = tested compound 10 μM in combination with 1 μM B101
[6] = tested compound 10 μM in combination with 1 μM B105
[7] = Homo sapiens, VCaP, 120 h, tested compound alone, 0.1 μM, read-out: Survival rate of Vcap cells
[8] = Homo sapiens, VCaP, 120 h, tested compound alone, 1 μM, read-out: Survival rate of Vcap cells
[9] = Homo sapiens, VCaP, 120 h, tested compound alone, 10 μM, read-out: Survival rate of Vcap cells
[10] = Homo sapiens, VCaP, 120 h, read-out: Survival rate of Vcap cells, tested compound alone, 0.1 μM
[11] = Homo sapiens, VCaP, 120 h, read-out: Survival rate of Vcap cells, tested compound alone, 10 μM

CNC(=O)c1ccc(N2C(=S)N(c3cnc(C#N)c(C(F)(F)F)c3)C(=O)C23CCC3)cc1F [ARN-509, reference compound]
Survival rate of Vcap cells (Vcap cells; [1]): 42.7% | Survival rate of Vcap cells (Vcap cells; [2]): 45.3% | Survival rate of Vcap cells (Vcap cells; [3]): 39.2% | Survival rate of Vcap cells (Vcap cells; [4]): 38.6% | Survival rate of Vcap cells (Vcap cells; [5]): 38.4% | Survival rate of Vcap cells (Vcap cells; [6]): 38.0% | Survival rate of LNCap cells (LNCap cells; 0.1 μM): 105.2% | Survival rate of LNCap cells (LNCap cells; 1 μM): 86.7% | Survival rate of LNCap cells (LNCap cells; 10 μM): 60.2%

CC(=O)O[C@H]1CC[C@@]2(C)C(=CC[C@@H]3[C@@H]2CC[C@]2(C)C(c4cccnc4)=CC[C@@H]32)C1 [Abiraterone acetate, reference compound]
viability at 0.1 µM (Vcap cells; [7]): 106% | viability at 1 µM (Vcap cells; [8]): 91.7% | Survival rate of Vcap cells (Vcap cells; [1]): 72.2% | Survival rate of Vcap cells (Vcap cells; [2]): 77.3% | Survival rate of Vcap cells (Vcap cells; [3]): 70.5% | Survival rate of Vcap cells (Vcap cells; [4]): 70.7% | Survival rate of Vcap cells (Vcap cells; [5]): 66.7% | Survival rate of Vcap cells (Vcap cells; [6]): 69.2% | Survival rate of LNCap cells (LNCap cells; 0.1 μM): 109.2% | Survival rate of LNCap cells (LNCap cells; 1 μM): 90.7% | Survival rate of LNCap cells (LNCap cells; 10 μM): 45.2%

[2H][C@]1(N2Cc3c(OCc4ccc(CN5CCOCC5)cc4F)cccc3C2=O)CCC(=O)NC1=O [C111]
inhibition at 0.05 µM (Vcap cells; Homo sapiens, VCaP, 120 h, B105 or C111 0.05 μM alone, 5 days, read-out: Vcap cell proliferation inhibition rate): 19.6% | inhibition at 0.14 µM (Vcap cells; Homo sapiens, VCaP, 120 h, B105 or C111 0.14 μM alone, 5 days, read-out: Vcap cell proliferation inhibition rate): 20.9% | inhibition at 1.23 µM (Vcap cells; Homo sapiens, VCaP, 120 h, B105 or C111 1.23 μM alone, 5 days, read-out: Vcap cell proliferation inhibition rate): 23.4% | inhibition at 3.7 µM (Vcap cells; Homo sapiens, VCaP, 120 h, B105 or C111 3.70 μM alone, 5 days, read-out: Vcap cell proliferation inhibition rate): 25.4% | inhibition at 11.11 µM (Vcap cells; Homo sapiens, VCaP, 120 h, B105 or C111 11.11 μM alone, 5 days, read-out: Vcap cell proliferation inhibition rate): 28.8% | inhibition at 33.33 µM (Vcap cells; Homo sapiens, VCaP, 120 h, B105 or C111 33.33 μM alone, 5 days, read-out: Vcap cell proliferation inhibition rate): 29.1% | inhibition at 100 µM (Vcap cells; Homo sapiens, VCaP, 120 h, B105 or C111 100.00 μM alone, 5 days, read-out: Vcap cell proliferation inhibition rate): 31.6% | inhibition at 300 µM (Vcap cells; Homo sapiens, VCaP, 120 h, B105 or C111 300.00 μM alone, 5 days, read-out: Vcap cell proliferation inhibition rate): 33.9% | viability at 0.1 µM (Vcap cells; [7]): 81.5% | viability at 1 µM (Vcap cells; [8]): 81% | viability at 10 µM (Vcap cells; [9]): 77% | Survival rate of Vcap cells (Vcap cells; tested compound 0.1 μM in combination with 1 μM ARN-509): 37.0% | Survival rate of Vcap cells (Vcap cells; tested compound 0.1 μM in combination with 1 μM Abiraterone acetate): 65.5% | Survival rate of Vcap cells (Vcap cells; tested compound 0.1 μM in combination with 1 μM Enzalutamide): 36.3% | Survival rate of Vcap cells (Vcap cells; tested compound 0.1 μM in combination with 1 μM Galeterone): 46.6% | Survival rate of Vcap cells (Vcap cells; tested compound 0.1 μM in combination with 1 μM ODM-201): 45.9% | Survival rate of Vcap cells (Vcap cells; tested compound 1 μM in combination with 1 μM ARN-509): 35.6% | Survival rate of Vcap cells (Vcap cells; tested compound 1 μM in combination with 1 μM Abiraterone acetate): 68.5% | Survival rate of Vcap cells (Vcap cells; tested compound 1 μM in combination with 1 μM Enzalutamide): 35.8% | Survival rate of Vcap cells (Vcap cells; tested compound 1 μM in combination with 1 μM Galeterone): 47.0% | Survival rate of Vcap cells (Vcap cells; tested compound 1 μM in combination with 1 μM ODM-201): 43.1% | Survival rate of Vcap cells (Vcap cells; tested compound 10 μM in combination with 1 μM ARN-509): 37.3% | Survival rate of Vcap cells (Vcap cells; tested compound 10 μM in combination with 1 μM Abiraterone acetate): 66.1% | Survival rate of Vcap cells (Vcap cells; tested compound 10 μM in combination with 1 μM Enzalutamide): 36.6% | Survival rate of Vcap cells (Vcap cells; tested compound 10 μM in combination with 1 μM Galeterone): 47.8% | Survival rate of Vcap cells (Vcap cells; tested compound 10 μM in combination with 1 μM ODM-201): 37.2%

CC(=O)O[C@]1(C(C)=O)CC[C@H]2[C@@H]3C=C(Cl)C4=CC(=O)[C@@H]5C[C@@H]5[C@]4(C)[C@H]3CC[C@@]21C [Cyproterone Acetate, reference compound]
viability at 0.1 µM (Vcap cells; [7]): 97.2% | viability at 1 µM (Vcap cells; [8]): 96% | viability at 10 µM (Vcap cells; [9]): 83.5% | Survival rate of Vcap cells (Vcap cells; [1]): 85.0% | Survival rate of Vcap cells (Vcap cells; [2]): 82.1% | Survival rate of Vcap cells (Vcap cells; [3]): 85.0% | Survival rate of Vcap cells (Vcap cells; [4]): 84.0% | Survival rate of Vcap cells (Vcap cells; [5]): 78.9% | Survival rate of Vcap cells (Vcap cells; [6]): 79.4%

C[C@]12CC[C@H](O)C[C@@H]1CC[C@@H]1[C@@H]2CC[C@]2(C)C(=O)CC[C@@H]12 [Epiandrosterone, reference compound]
Survival rate of Vcap cells (Vcap cells; [2]): 71.5% | Survival rate of Vcap cells (Vcap cells; [3]): 71.1% | Survival rate of Vcap cells (Vcap cells; [4]): 64.6% | Survival rate of Vcap cells (Vcap cells; [5]): 79.8% | Survival rate of Vcap cells (Vcap cells; [6]): 77.4%

CC(C)C(=O)Nc1ccc([N+](=O)[O-])c(C(F)(F)F)c1 [Flutamide, reference compound]
viability at 0.1 µM (Vcap cells; [7]): 105% | viability at 1 µM (Vcap cells; [8]): 96.7% | viability at 10 µM (Vcap cells; [9]): 73.1% | Survival rate of Vcap cells (Vcap cells; [1]): 80.4% | Survival rate of Vcap cells (Vcap cells; [2]): 76.5% | Survival rate of Vcap cells (Vcap cells; [3]): 65.1% | Survival rate of Vcap cells (Vcap cells; [4]): 64.6% | Survival rate of Vcap cells (Vcap cells; [5]): 42.8% | Survival rate of Vcap cells (Vcap cells; [6]): 43.8%

C[C@](O)(COc1ccc(C#N)cc1)C(=O)Nc1ccc(C#N)c(C(F)(F)F)c1 [MK-2866, reference compound]
viability at 0.1 µM (Vcap cells; [10]): 76.5% | viability at 1 µM (Vcap cells; Homo sapiens, VCaP, 120 h, read-out: Survival rate of Vcap cells, tested compound alone, 1 μM): 77.4% | viability at 10 µM (Vcap cells; [11]): 69.4% | Survival rate of Vcap cells (Vcap cells; [1]): 61.4% | Survival rate of Vcap cells (Vcap cells; [2]): 62.6% | Survival rate of Vcap cells (Vcap cells; [3]): 63.6% | Survival rate of Vcap cells (Vcap cells; [4]): 59.7% | Survival rate of Vcap cells (Vcap cells; [5]): 52.7% | Survival rate of Vcap cells (Vcap cells; [6]): 52.5%

CC(=O)O[C@]1(C(C)=O)CC[C@H]2[C@@H]3C=C(C)C4=CC(=O)CC[C@]4(C)[C@H]3CC[C@@]21C [Megestrol Acetate, reference compound]
viability at 0.1 µM (Vcap cells; [7]): 99.7% | viability at 1 µM (Vcap cells; [8]): 103% | viability at 10 µM (Vcap cells; [9]): 88.9% | Survival rate of Vcap cells (Vcap cells; [1]): 85.2% | Survival rate of Vcap cells (Vcap cells; [2]): 82.1% | Survival rate of Vcap cells (Vcap cells; [3]): 83.1% | Survival rate of Vcap cells (Vcap cells; [4]): 83.3% | Survival rate of Vcap cells (Vcap cells; [5]): 75.2% | Survival rate of Vcap cells (Vcap cells; [6]): 76.6%

CC(O)c1cc(C(=O)N[C@@H](C)Cn2ccc(-c3ccc(C#N)c(Cl)c3)n2)[nH]n1 (stereo partly shown) [ODM-201, reference compound]
viability at 0.1 µM (Vcap cells; [10]): 90.7% | viability at 10 µM (Vcap cells; [11]): 75.4% | viability at 1 µM (Vcap cells; [8]): 69% | Survival rate of Vcap cells (Vcap cells; tested compound alone, 1 μM): 69.0%

C[C@]12C=CC(=O)C=C1CC[C@@H]1[C@@H]2C(=O)C[C@@]2(C)[C@H]1CC[C@]2(O)C(=O)CO [Prednisone, reference compound]
viability at 0.1 µM (Vcap cells; [7]): 99.1% | viability at 1 µM (Vcap cells; [8]): 99.7% | viability at 10 µM (Vcap cells; [9]): 99.4% | Survival rate of Vcap cells (Vcap cells; [1]): 84.0% | Survival rate of Vcap cells (Vcap cells; [2]): 87.5% | Survival rate of Vcap cells (Vcap cells; [3]): 76.9% | Survival rate of Vcap cells (Vcap cells; [4]): 80.6% | Survival rate of Vcap cells (Vcap cells; [5]): 75.3% | Survival rate of Vcap cells (Vcap cells; [6]): 79.7%

CC(=O)S[C@@H]1CC2=CC(=O)CC[C@]2(C)[C@H]2CC[C@@]3(C)[C@@H](CC[C@@]34CCC(=O)O4)[C@H]12 [Spironolactone, reference compound]
viability at 0.1 µM (Vcap cells; [7]): 100% | viability at 1 µM (Vcap cells; [8]): 91.3% | viability at 10 µM (Vcap cells; [9]): 72.5% | Survival rate of Vcap cells (Vcap cells; [1]): 85.3% | Survival rate of Vcap cells (Vcap cells; [2]): 87.2% | Survival rate of Vcap cells (Vcap cells; [3]): 77.3% | Survival rate of Vcap cells (Vcap cells; [4]): 79.6% | Survival rate of Vcap cells (Vcap cells; [5]): 65.9% | Survival rate of Vcap cells (Vcap cells; [6]): 64.5%

CC(O)(CS(=O)(=O)c1ccc(F)cc1)C(=O)Nc1ccc(C#N)c(C(F)(F)F)c1 (stereo not shown) [bicalutamide, reference compound]
viability at 0.1 µM (Vcap cells; [10]): 99.2% | viability at 1 µM (Vcap cells; [8]): 94% | viability at 10 µM (Vcap cells; [9]): 92% | Survival rate of Vcap cells (Vcap cells; [1]): 70.5% | Survival rate of Vcap cells (Vcap cells; [2]): 75.9% | Survival rate of Vcap cells (Vcap cells; [3]): 66.5% | Survival rate of Vcap cells (Vcap cells; [4]): 67.3% | Survival rate of Vcap cells (Vcap cells; [5]): 64.0% | Survival rate of Vcap cells (Vcap cells; [6]): 63.4%

From patent US10933059B2, “Combination, application thereof and treatment method” (KANGPU BIOPHARMACEUTICALS, LTD., priority 2016, dated 2021)
